Experiment in all cases: Bliss excess, mean over the matrix (fraction); higher = more synergy
One assay relates to UACC-62 (Melanoma). In outline:
(§1)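 Cell lines in DMEM/F12 or RPMI with 10% FBS were plated in 1536-well plates, held 24 hours at 37°C, 5% CO2, then given two-drug dose matrices for 72 hours (DMSO typically 0.2%). Viability was read by CellTiter-Glo 2.0 luminescence and scaled as inhibition from 0 (vehicle wells) to 1 (blank wells). Combination Emax is the second-highest inhibition in the matrix; Bliss excess is observed combination effect minus expected EA + EB − EA·EB, EA and EB being single-agent effects.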

Assay [1] relates to HGC-27 (Gastric Carcinoma). In a few lines: as §1
Assay [2] deals with C-4-I (Cervical Carcinoma). In outline: as §1
The next assay relates to TGW (Neuroblastoma). In a few lines: as §1
The subject of assay [3] is KARPAS-299 (T-Cell Non-Hodgkin's Lymphoma). In a few lines: as §1
The subject of assay [4] is SW13 (Other Solid Carcinomas). In a few lines: as §1
The subject of the next assay is ACHN (Kidney Carcinoma). In a few lines:
as §1

The subject of assay [5] is NCI-H727 (Other Solid Carcinomas). In a few lines: as §1
For assay [6], the system named is MIA-PaCa-2 (Pancreatic Carcinoma). In outline: as §1
In assay [7] the test system is VA-ES-BJ (Other Solid Carcinomas). In outline:
as §1

The test system of assay [8] is KYSE-450 (Esophageal Squamous Cell Carcinoma). In a few lines: as §1
Assay [9] has as its system SU8686 (Pancreatic Carcinoma). In a few lines:
as §1

In assay [10] the test system is HOP-62 (Lung Adenocarcinoma). In outline: as §1
In assay [11] the test system is AMO-1 (Plasma Cell Myeloma). In a few lines: as §1
Assay [12] deals with BT-549 (Breast Carcinoma). In outline:
as §1

A further assay deals with YH-13 (Glioblastoma). In a few lines:
as §1

Assay [13] concerns MLMA (Other Blood Carcinomas). In outline: as §1
For assay [14], the system named is RF-48 (B-Cell Non-Hodgkin's Lymphoma). In a few lines: as §1
Assay [15] concerns Ca9-22 (Head and Neck Carcinoma). In outline:
as §1

The subject of assay [16] is PANC-04-03 (Pancreatic Carcinoma). In a few lines: as §1

`CC1(C)CCC(CN2CCN(c3ccc(C(=O)NS(=O)(=O)c4ccc(NCC5CCOCC5)c([N+](=O)[O-])c4)c(Oc4cnc5[nH]ccc5c4)c3)CC2)=C(c2ccc(Cl)cc2)C1` [Venetoclax] + CCN(CCO)CCCOc1ccc2c(Nc3cc(CC(=O)Nc4cccc(F)c4)[nH]n3)ncnc2c1 [AZD2811] (first compound max 1 µM, 7x7, partner max 1 µM): the Bliss excess with UACC-62 (Melanoma) is -0.0027; in [1] it was 0.0075; in [2], 0.0484; with TGW (Neuroblastoma), -0.011; in assay [3], 0.0871; in assay [4] it was 0.0311. Further, the Bliss excess with ACHN (Kidney Carcinoma) is -0.0204; in assay [5], -0.0795; in [6], -0.0362; in [7], 0.0108; in [8], -0.0215; in assay [9], -0.0364. Further, the Bliss excess in assay [10] is -0.0222; in assay [11], 0.0249; in assay [12], -0.0111; in the assay on YH-13 (Glioblastoma), -0.0428; in [13], -0.0633; in assay [14], 0.0498. The Bliss excess in assay [15] is 0.0079; in [16], -0.0565.
Consider `CC1(C)CCC(CN2CCN(c3ccc(C(=O)NS(=O)(=O)c4ccc(NCC5CCOCC5)c([N+](=O)[O-])c4)c(Oc4cnc5[nH]ccc5c4)c3)CC2)=C(c2ccc(Cl)cc2)C1` [Venetoclax] + CN(C)CCCOc1ccc(-c2ccc3ncc4c(c3c2)n(C2CCOCC2)c(=O)n4C)cn1 [AZD0156] (first compound max 1 µM, 7x7, partner max 1 µM), for which the Bliss excess in the assay on UACC-62 (Melanoma) is 0.0254; in [1], 0.0396; in [2], 0.0229; in the assay on TGW (Neuroblastoma), -0.0245; in assay [3], 0.0353; in assay [4], 0.027. The Bliss excess with ACHN (Kidney Carcinoma) was -0.0333; in assay [5] it was -0.0499; in assay [6] it was 0.0184; in assay [7] it was -0.0204; in [8], -0.0795; in assay [9] it was -0.0036. Also, the Bliss excess in [10] is -0.0677; in assay [11], -0.0122; in assay [12] it was -0.0049; in the assay on YH-13 (Glioblastoma) it was -0.0972; in assay [13], 0.0062; in [14], -0.0109. Also, the Bliss excess in [15] was 0.0234; in assay [16], -0.062.
In the case of `CC1(C)CCC(CN2CCN(c3ccc(C(=O)NS(=O)(=O)c4ccc(NCC5CCOCC5)c([N+](=O)[O-])c4)c(Oc4cnc5[nH]ccc5c4)c3)CC2)=C(c2ccc(Cl)cc2)C1` [Venetoclax] + COc1cc(Nc2ncc3c(n2)-c2ccc(Cl)cc2C(c2c(F)cccc2OC)=NC3)ccc1C(=O)O [Alisertib] (first compound max 1 µM, 7x7, partner max 10 µM), the Bliss excess in the assay with UACC-62 (Melanoma) was 0.01; in [1], 0.0133; in assay [2] it was -0.0158; with TGW (Neuroblastoma) it was 0.0858; in assay [3], 0.134; in assay [4] it was 0.0421. Also, the Bliss excess with ACHN (Kidney Carcinoma) was 0.0062; in assay [5], -0.0707; in [6] it was -0.0131; in [7] it was -0.0089; in assay [8], 0.007; in assay [9], -0.0438. Besides, the Bliss excess in assay [10] was -0.0381; in [11], -0.0586; in assay [12] it was 0.0371; in the assay with YH-13 (Glioblastoma), 0.111; in assay [13] it was -0.046; in [14] it was 0.194. Further, the Bliss excess in assay [15] was -0.0147; in assay [16], -0.0843.
For `CC1(C)CCC(CN2CCN(c3ccc(C(=O)NS(=O)(=O)c4ccc(NCC5CCOCC5)c([N+](=O)[O-])c4)c(Oc4cnc5[nH]ccc5c4)c3)CC2)=C(c2ccc(Cl)cc2)C1` [Venetoclax] + C[C@@H]1COCCN1C2=NC(=NC(=C2)C3(CC3)[S@](=N)(=O)C)C4=C5C=CNC5=NC=C4 [AZD6738] (first compound max 1 µM, 7x7, partner max 10 µM), the Bliss excess was -0.0196 with UACC-62 (Melanoma); -0.0099 in [1]; -0.0398 in [2]; -0.0202 with TGW (Neuroblastoma); -0.0328 in assay [3]; 0.0075 in assay [4]. The Bliss excess is -0.0445 in the assay on ACHN (Kidney Carcinoma); -0.0801 in assay [5]; -0.0632 in assay [6]; -0.0185 in [7]; -0.061 in assay [8]; -0.0285 in [9]. Moreover, the Bliss excess is -0.0649 in assay [10]; -0.0355 in assay [11]; -0.0331 in assay [12]; -0.0325 in the assay with YH-13 (Glioblastoma); -0.0275 in assay [13]; -0.0039 in [14]. Further, the values for the Bliss excess in assay [15] and in assay [16] were -0.0019 and -0.0168, respectively.
On to `CC1(C)CCC(CN2CCN(c3ccc(C(=O)NS(=O)(=O)c4ccc(NCC5CCOCC5)c([N+](=O)[O-])c4)c(Oc4cnc5[nH]ccc5c4)c3)CC2)=C(c2ccc(Cl)cc2)C1` [Venetoclax] + C[C@@H](Nc1cc(F)cc(F)c1)c1cc(C(=O)N(C)C)cc2c(=O)cc(N3CCOCC3)oc12 [AZD8186] (first compound max 1 µM, 7x7, partner max 3 µM), for which the Bliss excess was 0.0118 in the assay with UACC-62 (Melanoma); -0.0256 in [1]; 0.0078 in assay [2]; 0.0136 in the assay with TGW (Neuroblastoma); -0.0074 in assay [3]; -0.0263 in assay [4]. Also, the Bliss excess in the assay with ACHN (Kidney Carcinoma) was -0.0208; in assay [5], -0.0654; in assay [6], -0.0513; in assay [7], -0.0245; in [8], -0.0457; in assay [9], -0.0303. For the same compound, the Bliss excess in assay [10] is -0.0412; in assay [11], -0.0065; in assay [12] it was -0.0328; in the assay with YH-13 (Glioblastoma), -0.0336; in assay [13], -0.0327; in [14], 0.0481. Besides, the Bliss excess in [15] is -0.0104; in assay [16], -0.0374.
Consider `CC1(C)CCC(CN2CCN(c3ccc(C(=O)NS(=O)(=O)c4ccc(NCC5CCOCC5)c([N+](=O)[O-])c4)c(Oc4cnc5[nH]ccc5c4)c3)CC2)=C(c2ccc(Cl)cc2)C1` [Venetoclax] + Cc1cc2ncnn2cc1Nc1ncc2c(n1)n(C1CCOCC1)c(=O)n2C [AZD7648] (first compound max 1 µM, 7x7, partner max 10 µM), for which the Bliss excess is -0.0424 in the assay with UACC-62 (Melanoma); -0.0261 in assay [1]; 0.0131 in [2]; 0.0025 in the assay with TGW (Neuroblastoma); 0.0487 in assay [3]; 0.0127 in assay [4]. The Bliss excess in the assay on ACHN (Kidney Carcinoma) was -0.0244; in [5], -0.0634; in assay [6], -0.0218; in assay [7] it was -0.0341; in [8], -0.0515; in [9] it was -0.0195. The Bliss excess is -0.0711 in assay [10]; -0.0116 in assay [11]; -0.0328 in assay [12]; -0.0484 with YH-13 (Glioblastoma); -0.0323 in assay [13]; -0.0106 in [14]. Further, the Bliss excess in assay [15] is -0.0241; in assay [16], -0.0617.
`CC1(C)CCC(CN2CCN(c3ccc(C(=O)NS(=O)(=O)c4ccc(NCC5CCOCC5)c([N+](=O)[O-])c4)c(Oc4cnc5[nH]ccc5c4)c3)CC2)=C(c2ccc(Cl)cc2)C1` [Venetoclax] + Cn1cnc2c(F)c(Nc3ccc(Br)cc3Cl)c(C(=O)NOCCO)cc21 [Selumetinib] (first compound max 1 µM, 7x7, partner max 3 µM): the Bliss excess was -0.0235 in the assay on UACC-62 (Melanoma); -0.0178 in [1]; -0.0299 in assay [2]; 0.0099 in the assay with TGW (Neuroblastoma); -0.0102 in [3]; 0.0137 in assay [4]. Further, the Bliss excess with ACHN (Kidney Carcinoma) was -0.0151; in assay [5], -0.0534; in assay [6], -0.0073; in [7], -0.0473; in assay [8] it was -0.0432; in assay [9] it was -0.0792. In addition, the Bliss excess in [10] is -0.0155; in assay [11], 0.0092; in assay [12], -0.0691; in the assay on YH-13 (Glioblastoma) it was -0.0542; in assay [13] it was 0.0401; in assay [14], -0.0034. In addition, the Bliss excess in assay [15] was 0.0054; in assay [16], -0.0633.

For the origin of these results see the supplement of paper PMC11061612.
